From patent US7541193B2, “Caged sensors, regulators and compounds and uses thereof” (Panomics, Inc., priority 2002, dated 2009)

How the values were obtained:
PKC = experiment: photoactivated in vitro PKC assay initiated by uncaging caged ATP; format: biochemical; details: exposed to 365 nm UV lamp for 10 min; excitation 485 nm, emission 535 nm
Procedure: FIG. 34 is a line graph depicting the results of a photoactivated PKC assay using caged ATP and a PKC sensor. […] Reactions were read on a fluorescent microtiter plate reader with excitation at 485 nm and emission at 535 nm.
FIG. 33 (see, also, FIG. 23) illustrates the activation of an in vitro PKC assay after exposure to 365 nm light. All components were mixed together in a 96-well microtiter plate. The plate was exposed to a 365 nm UV lamp for 10 min (step 3301) and immediately placed into a fluorescent microtiter plate reader for detection. The light-activated compound is DMNPE-caged ATP. […] See, e.g., McCray and Trentham (1989) “Properties and Uses of Photoreactive Caged Compounds” Annu Rev Biophys Biophys Chem 18:239 for a description of the caged ATP. The PKC probes and reaction set-up are based on Yeh et al. (2002) “Real time visualization of protein kinase activity in living cells” J Biol Chem 277: 11527-11532, with the replacement of normal ATP by DMNPE-caged ATP.

protein kinase C (PKC) = experiment: in vivo IC-50 determination with photolabile caged PKC sensor in living HeLa cells; format: cell-based; details: HeLa cells transfected with 10 μM caged PKC sensor; 30 min inhibitor incubation; uncaging 1 J/cm^2 365 nm; 1 μM PMA; read-out: IC-50 determined in vivo
Procedure: The caged PKC sensor was transfected into the cells at a concentration of 10 μM, as follows. To 37.5 μl serum-free DMEM, 2.5 μl Profect P-2 and then 10 μl of caged PKC sensor (diluted to 500 μM in PBS) were added. The reagents were mixed gently and incubated for 30 minutes at room temperature. The DMEM was removed from the well containing the HeLa cells, and the cells were washed once with PBS. After addition of 450 μl serum-free DMEM to the Profect P-2-caged sensor complex, 50 μl of the complex was added to each well. The HeLa cells were incubated with the complex at 37° C. for 2 h (or optionally longer, with the addition of fresh DMEM). To uncage the caged PKC sensor, cells were exposed from beneath the plate to 1 J/cm^2 365 nm UV light. Uncaging light was produced by a BlueWave ™ UV Spot Light System fitted with a Lightguide mount assembly, Cool Blue™ filter, and Lightguide rod lens assembly (Dymax Corp., on the internet at dymax.com, part numbers 38600, 38670, and 38699). […] Fluorescent signal from the PKC sensor was read on an Acumen Explorer™ microplate reader.
Cells containing the caged sensor were incubated with 4-fold dilutions of GF109203X for 30 min before the cells were exposed to uncaging light (1 J/cm^2, 365 nm) and treated with 1 μM PMA. Fluorescent signal from the PKC sensor was read on an Acumen Explorer™ microplate reader. […]

PKC enzyme = experiment: in vitro biochemical PKC assay with PKC sensor (not caged); details: 1 mM ATP, 1 μM PKC sensor (not caged), 22 nM PKC enzyme; read-out: IC-50 determined in an in vitro biochemical assay

Row | Structure (SMILES) | signal response (relative fluorescence) of PKC reaction (PKC) | IC50 (protein kinase C (PKC)) | IC50 (PKC enzyme)
1 | COc1cc(C(C)OP(=O)(O)OP(=O)(O)OP(=O)(O)OCC2OC(n3cnc4c(N)ncnc43)C(O)C2O)c([N+](=O)[O-])cc1OC (stereo not drawn) [DMNPE-caged ATP] | exhibits signal response similar to the reaction with normal ATP |  | 
2 | CN(C)CCCn1cc(C2=C(c3c[nH]c4ccccc34)C(=O)NC2=O)c2ccccc21 [GF109203X] |  | 1600 nM | 1100 nM
